Measurements: US6890736B1, “Methods for producing proteins in cultured cells” (Immunex Corporation, priority 2002, dated 2005)
Where “and” joins values, the source holds several entries; their conditions need not be identical. Identical values can stand only once.

Test system: cell line 25H9 (CHO cells that produce IL-1R-II protein)
Assay: Example 1: induction of IL-1R-II production (ELISA titer, productivity) at 31° C. or 34° C.
Assay type: cell-based, Chinese hamster
Procedure: The following experiment was designed to test whether decitabine can induce the production of a protein, in this case a recombinant soluble form of the human interleukin 1 receptor type II (IL-1-R-II), at either 31° C. or 34° C. Soluble versions of IL-1R-II and methods for producing it are described in U.S. Pat. No. 5,767,064. DNA encoding a soluble form of the human IL-1R-II was inserted into pG3.6, which is described in Morris et al. ((1998), Cytotechnology 28:9-17). This construct was used to transfect CHO cells to produce cell lines, including 25H9, that produce IL-1R-II protein.
About 2×10^6 cells of cell line 25H9 were inoculated into 30 milliliters of serum-free medium and incubated at the temperatures indicated in Table 1 in vented shake flasks. At the times indicated in Table 1, samples were taken from each flask to determine IL-1R-II titer, cell number, and cell viability. IL-1R-II protein titer was determined by ELISA assay. Cell number was determined by counting cells in a hemocytometer. Cell viability was determined by trypan blue staining and counting stained cells in a hemocytometer. Cumulative viable cell density (CVCD) is the area under the curve of a plot of the viable cell density versus time (in units of cells/ml/day). Productivity (pg of IL-1R-II/cell/day) was determined by dividing the protein titer on a particular day by the CVCD on the same day. Cells were fed with amino acids on days 2 and 5, and dextrose was added periodically in order to maintain levels above 2.0 g/L. All samples were done in duplicate, and the data shown is an average value.

[1] = 31° C., 1 μM decitabine, day 10
[2] = 31° C., 5 μM decitabine, day 10
[3] = 31° C., 10 μM decitabine, day 3
[4] = 31° C., 10 μM decitabine, day 5
[5] = 31° C., 10 μM decitabine, day 7
[6] = 31° C., 10 μM decitabine, day 10
[7] = 34° C., 10 μM decitabine, day 3
[8] = 34° C., 10 μM decitabine, day 5
[9] = 34° C., 10 μM decitabine, day 7

In the case of Nc1ncn([C@H]2C[C@H](O)[C@@H](CO)O2)c(=O)n1 [decitabine, 5-aza-2′-deoxycytidine], the “IL-1R-II Titer” value (31° C., 1 μM decitabine, day 0) is reported as 0.0 µg/mL, the “IL-1R-II Titer” value (31° C., 1 μM decitabine, day 3) is reported as 62.6 µg/mL and the Productivity (31° C., 1 μM decitabine, day 3) is reported as 7.5 pg IL-1R-II/cell/day. The “IL-1R-II Titer” value (31° C., 1 μM decitabine, day 5) was 132.0 µg/mL, the Productivity (31° C., 1 μM decitabine, day 5) was 7.8 pg IL-1R-II/cell/day and the “IL-1R-II Titer” value (31° C., 1 μM decitabine, day 7) was 216.5 µg/mL. The Productivity (31° C., 1 μM decitabine, day 7) was 7.8 pg IL-1R-II/cell/day, the “IL-1R-II Titer” value [1] was 330.5 µg/mL and the Productivity [1] was 7.5 pg IL-1R-II/cell/day. The “IL-1R-II Titer” value (31° C., 5 μM decitabine, day 0) was 0.0 µg/mL, the “IL-1R-II Titer” value (31° C., 5 μM decitabine, day 3) was 77.8 µg/mL and the Productivity (31° C., 5 μM decitabine, day 3) was 9.2 pg IL-1R-II/cell/day. The “IL-1R-II Titer” value (31° C., 5 μM decitabine, day 5) was 123.5 µg/mL, the Productivity (31° C., 5 μM decitabine, day 5) was 7.8 pg IL-1R-II/cell/day and the “IL-1R-II Titer” value (31° C., 5 μM decitabine, day 7) was 210.5 µg/mL. For the same compound, the Productivity (31° C., 5 μM decitabine, day 7) was 9.2 pg IL-1R-II/cell/day, the “IL-1R-II Titer” value [2] was 351.0 µg/mL and the Productivity [2] was 8.8 pg IL-1R-II/cell/day. The “IL-1R-II titer relative to the titer observed at 31° C. with no inducer” value (31° C., 10 μM decitabine) was 1.7 times, the “most effective concentration for IL-1R-II titer” value (31° C., 10 μM decitabine among 1, 5, 10 μM) was “most effective concentration among those tested” and the “IL-1R-II Titer” value (31° C., 10 μM decitabine, day 0) was 0.0 µg/mL. The “IL-1R-II Titer” value [3] was 59.1 µg/mL, the Productivity [3] was 8.0 pg IL-1R-II/cell/day and the “IL-1R-II Titer” value [4] was 149.5 µg/mL. The Productivity [4] was 10.4 pg IL-1R-II/cell/day, the “IL-1R-II Titer” value [5] was 224.5 µg/mL and the Productivity [5] was 10.4 pg IL-1R-II/cell/day. The “IL-1R-II Titer” value [6] was 378 µg/mL and 378.0 µg/mL, the Productivity [6] was 11.9 pg IL-1R-II/cell/day and the “IL-1R-II Titer” value (34° C., 1 μM decitabine, day 0) was 0.0 µg/mL. For the same compound, the “IL-1R-II Titer” value (34° C., 1 μM decitabine, day 3) was 65.4 µg/mL, the Productivity (34° C., 1 μM decitabine, day 3) was 5.7 pg IL-1R-II/cell/day and the “IL-1R-II Titer” value (34° C., 1 μM decitabine, day 5) was 143.5 µg/mL. The Productivity (34° C., 1 μM decitabine, day 5) was 5.6 pg IL-1R-II/cell/day, the “IL-1R-II Titer” value (34° C., 1 μM decitabine, day 7) was 212.5 µg/mL and the Productivity (34° C., 1 μM decitabine, day 7) was 5.1 pg IL-1R-II/cell/day. For the same compound, the “IL-1R-II Titer” value (34° C., 1 μM decitabine, day 10) was 206.0 µg/mL, the “IL-1R-II Titer” value (34° C., 5 μM decitabine, day 0) was 0.0 µg/mL and the “IL-1R-II Titer” value (34° C., 5 μM decitabine, day 3) was 73.6 µg/mL. The Productivity (34° C., 5 μM decitabine, day 3) was 6.4 pg IL-1R-II/cell/day, the “IL-1R-II Titer” value (34° C., 5 μM decitabine, day 5) was 156.5 µg/mL and the Productivity (34° C., 5 μM decitabine, day 5) was 6.3 pg IL-1R-II/cell/day. For the same compound, the “IL-1R-II Titer” value (34° C., 5 μM decitabine, day 7) was 218.5 µg/mL, the Productivity (34° C., 5 μM decitabine, day 7) was 5.7 pg IL-1R-II/cell/day and the “IL-1R-II Titer” value (34° C., 5 μM decitabine, day 10) was 307 µg/mL and 307.0 µg/mL. For the same compound, the “IL-1R-II Titer” value (34° C., 10 μM decitabine, day 0) was 0.0 µg/mL, the “IL-1R-II Titer” value [7] was 80.8 µg/mL and the Productivity [7] was 8.3 pg IL-1R-II/cell/day. For the same compound, the “IL-1R-II Titer” value [8] was 151.5 µg/mL, the Productivity [8] was 7.9 pg IL-1R-II/cell/day and the “IL-1R-II Titer” value [9] was 203.5 µg/mL. For the same compound, the Productivity [9] was 7.5 pg IL-1R-II/cell/day, the “IL-1R-II titers at 34° C. compared with 31° C.” value (all concentrations of decitabine at 34° C.) was “Lower IL-1R-II titers” and the “productivity on a per cell basis” value (at 7 and 10 days at all concentrations and temperatures tested) was “increased”.
